Measured values reported in EP0745595A1, “3-(3-Aryloxyphenyl)-1-(substituted methyl)-s-triazine-2,4,6-oxo or thiotrione herbicidal agents” (American Cyanamid Company, priority 1995, dated 1996).

Experiments:
Assay type in all cases: in vivo
[1] = tested on: GALIUM APARINE; experiment: Postemergence herbicidal evaluation, GALAP (Galium); conditions: rated four to five weeks after treatment, averaged
Method: (§1) In the tests, seedling plants are grown in jiffy flats for about two weeks. The test compounds are dispersed in 50/50 acetone/water mixtures containing 0.5% TWEEN®20, a polyoxyethylene sorbitan monolaurate surfactant of Atlas Chemical Industries, in sufficient quantities to provide the equivalent of about 0.125 kg to 0.500 kg per hectare of active compound when applied to the plants through a spray nozzle operating at 40 psi for a predetermined time. After spraying, the plants are placed on greenhouse benches and are cared for in the usual manner, commensurate with conventional greenhouse practices. From four to five weeks after treatment, the seedling plants are examined and rated according to the rating system set forth below. Where more than one test is involved for a given compound, the data are averaged.
(§2) Plant species employed in these evaluations are reported by header abbreviation, common name and scientific name.
(§3) Results of herbicide evaluation are expressed on a rating scale (0-9). The scale is based upon a visual observation of plant stand, vigor, malformation, size, chlorosis and overall plant appearance as compared with a control.

[2] = tested on: IPOMOEA SPP.; experiment: Postemergence herbicidal evaluation, IPOSS (Morningglory spp.); conditions: rated four to five weeks after treatment, averaged
Method: as §1, with “in sufficient quantities to provide the equivalent of about 0.125 kg to 0.500 kg per hectare of active compound when applied” left out
as §2, §3

[3] = tested on: CHENOPODIUM ALBUM, L.; experiment: Postemergence herbicidal evaluation, CHEAL (Lambsquarters, Common); conditions: rated four to five weeks after treatment, averaged
Method: as §1, with “in sufficient quantities to provide the equivalent of about 0.125 kg to 0.500 kg per hectare of active compound when applied” left out
as §2, §3

[4] = tested on: ECHINOCHLOA ORYZOIDES (ARD.)FRITSCH; experiment: Preemergence weed control under flooded paddy conditions, ECHORC (Watergrass (Calif.)); conditions: preemergence, 3-4 weeks after treatment
Method: as §3
(§4) Preemergence herbicidal activity under flooded paddy conditions is determined as follows: plant seeds or propagating organs are planted in the top 0.5 cm of silt loam soil in 32 oz. plastic containers with a diameter of 10.5 cm and no drainage holes. Water is added to these containers and maintained at 1.5 to 3 cm above the soil surface for the duration of the experiment. […] The treated containers are placed on greenhouse benches and cared for according to normal greenhouse procedures.- Three to four weeks after treatment the test is terminated and each container is examined and herbicidal effect rated according to the rating system provided in Example 40. The compounds evaluated are reported by compound number given in Example 40.
(§5) Plant species employed in this example are reported by header abbreviation, common name and scientific name.

[5] = tested on: ORYZA SATIVA, L. TEBONNET; experiment: Rice tolerance to post-transplant applications under flooded paddy conditions, ORYSAT (Rice, Tebonnet); conditions: post-transplant rice, 3-4 weeks after treatment
Method: as §3
The tolerance of transplanted rice to post-transplanted herbicide applications is determined as follows: two ten-day-old rice seedlings (CV. Tebonnet) are transplanted into a silt loam soil in 32 oz. plastic containers with a diameter of 10.5 cm and no drainage holes. After transplanting the containers are flooded and the water level is maintained at 1.5 to 3 cm above the soil surface. […] The treated containers are placed on greenhouse benches, watered such that the water level is maintained as stated above, and cared for according to normal greenhouse procedures. Three to four weeks after treatment the test is terminated and each container is examined and herbicidal effect rated according to the rating system provided in Example 40. The compounds evaluated are reported by compound number given in Example 40.
as §5

[6] = tested on: CASSIA OBTUSIFOLIA, L.; experiment: Postemergence herbicidal evaluation, CASOB (Sicklepod); conditions: rated four to five weeks after treatment, averaged
Method: as §1, §2, §3

[7] = tested on: ABUTILON THEOPHRASTI, MEDIC.; experiment: Postemergence herbicidal evaluation, ABUTH (Velvetleaf); conditions: rated four to five weeks after treatment, averaged
Method: as §1, with “in sufficient quantities to provide the equivalent of about 0.125 kg to 0.500 kg per hectare of active compound when applied” left out
as §2, §3

[8] = tested on: […], PRESL.; experiment: Preemergence weed control under flooded paddy conditions, MOOVA (Monochoria); conditions: preemergence, 3-4 weeks after treatment
Method: as §3
Preemergence herbicidal activity under flooded paddy conditions is determined as follows: plant seeds or propagating organs are planted in the top 0.5 cm of silt loam soil in 32 oz. plastic containers with a diameter of 10.5 cm and no drainage holes. Water is added to these containers and maintained at 1.5 to 3 cm above the soil surface for the duration of the experiment. The test compounds are applied as aqueous/acetone mixtures 50/50 v/v pipetted directly into the flood water to give the equivalent of about 0.5, 0.25, 0.125 and 0.063 kg/ha of active ingredient. The treated containers are placed on greenhouse benches and cared for according to normal greenhouse procedures.- Three to four weeks after treatment the test is terminated and each container is examined and herbicidal effect rated according to the rating system provided in Example 40. The compounds evaluated are reported by compound number given in Example 40.
as §5

[9] = tested on: CYPERUS SEROTINUS, ROTTB.; experiment: Preemergence weed control under flooded paddy conditions, CYPSE (Flatsedge); conditions: preemergence, 3-4 weeks after treatment
Method: as §3, §4, §5

[10] = tested on: SAGITTARIA PYGMAEA, L.; experiment: Preemergence weed control under flooded paddy conditions, SAGPY (Arrowhead (Pygmaea)); conditions: preemergence, 3-4 weeks after treatment
Method: as §3, §4, §5

Structure (SMILES) | GALAP, herbicide rating (0-9) ([1]; Rate 0.125 kg/ha) | GALAP, herbicide rating (0-9) ([1]; Rate 0.250 kg/ha) | GALAP, herbicide rating (0-9) ([1]; Rate 0.500 kg/ha) | Herbicidal effect rating, ORYSAT ([5]; 0.063 kg/ha) | Herbicidal effect rating, ORYSAT ([5]; 0.125 kg/ha) | Herbicidal effect rating, ORYSAT ([5]; 0.250 kg/ha) | Herbicidal effect rating, ORYSAT ([5]; 0.500 kg/ha) | CASOB, herbicide rating (0-9) ([6]; Rate 0.125 kg/ha) | CASOB, herbicide rating (0-9) ([6]; Rate 0.250 kg/ha) | CASOB, herbicide rating (0-9) ([6]; Rate 0.500 kg/ha) | ABUTH, herbicide rating (0-9) ([7]; Rate 0.125 kg/ha) | ABUTH, herbicide rating (0-9) ([7]; Rate 0.250 kg/ha) | ABUTH, herbicide rating (0-9) ([7]; Rate 0.500 kg/ha) | Herbicidal effect rating, MOOVA ([8]; 0.063 kg/ha) | Herbicidal effect rating, MOOVA ([8]; 0.125 kg/ha) | Herbicidal effect rating, MOOVA ([8]; 0.250 kg/ha) | Herbicidal effect rating, MOOVA ([8]; 0.500 kg/ha) | further results
COC(=O)Cn1c(=O)n(C)c(=O)n(-c2cc(Oc3ccc(Cl)cc3Cl)ccc2[N+](=O)[O-])c1=O [Compound 18, Methyl 3-[5-(2,4-dichlorophenoxy)-2-nitrophenyl]tetrahydro-5-methyl-2,4,6-trioxo-s-trizine-1(2H)-acetate] | 9.0 | 9.0 | 9.0 | 2.0 | 3.0 | 3.0 | 4.0 | 9.0 | 9.0 | 9.0 | 9.0 | 9.0 | 9.0 | 9.0 | 9.0 | 9.0 | 9.0 | IPOSS, herbicide rating (0-9) ([2]; Rate 0.125 kg/ha): 9.0; IPOSS, herbicide rating (0-9) ([2]; Rate 0.250 kg/ha): 9.0; IPOSS, herbicide rating (0-9) ([2]; Rate 0.500 kg/ha): 9.0; CHEAL, herbicide rating (0-9) ([3]; Rate 0.125 kg/ha): 9.0; CHEAL, herbicide rating (0-9) ([3]; Rate 0.250 kg/ha): 9.0; CHEAL, herbicide rating (0-9) ([3]; Rate 0.500 kg/ha): 9.0; Herbicidal effect rating, ECHORC ([4]; 0.063 kg/ha): 9.0; Herbicidal effect rating, ECHORC ([4]; 0.125 kg/ha): 9.0; Herbicidal effect rating, ECHORC ([4]; 0.250 kg/ha): 9.0; Herbicidal effect rating, ECHORC ([4]; 0.500 kg/ha): 9.0
COC(=O)Cn1c(=O)n(CC(=O)OC)c(=O)n(-c2cc(Oc3ccc(Cl)cc3Cl)ccc2[N+](=O)[O-])c1=O [Compound 19, Dimethyl 5-[5-(2,4-dichlorophenoxy)-2-nitro-phenyl]dihydro-2,4,6-trioxo-s-trizine-1,3-(2H,4H)-diacetate] | 9.0 | 9.0 | 9.0 | 1.0 | 1.0 | 1.0 | 1.0 | 9.0 | 9.0 | 9.0 | 9.0 | 9.0 | 9.0 | 9.0 | 9.0 | 9.0 | 9.0 | Herbicidal effect rating, CYPSE ([9]; 0.063 kg/ha): 0.0; Herbicidal effect rating, CYPSE ([9]; 0.125 kg/ha): 0.0; Herbicidal effect rating, CYPSE ([9]; 0.250 kg/ha): 0.0; Herbicidal effect rating, CYPSE ([9]; 0.500 kg/ha): 0.0; Herbicidal effect rating, SAGPY ([10]; 0.063 kg/ha): 0.0; Herbicidal effect rating, SAGPY ([10]; 0.125 kg/ha): 0.0; Herbicidal effect rating, SAGPY ([10]; 0.250 kg/ha): 0.0; Herbicidal effect rating, SAGPY ([10]; 0.500 kg/ha): 0.0
